What follows are compounds tested on C6/36 Aedes albopictus cell line infected with Wolbachia pipientis (Wolbachia strain wAlbB) (assay: In vitro insect cell line assay (anti-Wolbachia screen, SYTO 11 high content imaging)). Settings: 168 h; C6/36 Aedes albopictus cells infected with Wolbachia pipientis wAlbB, 7 days incubation, SYTO 11 imaging; read-out: In vitro anti-Wolbachia activity.
Type: cell-based
How it was run: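 SYTO 11 staining (15 min), high-content imaging and texture analysis were the read-out on day 7. Before that, C6/36 mosquito cells carrying Wolbachia strain wAlbB were incubated at 26 °C with test compound at 5 μM final, alongside DMSO-only control wells.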

SMILES | EC50 [nM]
FC1(F)CCN(c2nc(NCc3cccnc3C(F)(F)F)c3cccnc3n2)CC1 [Example 197, 2-(4,4-difluoropiperidin-1-yl)-N-((2-(trifluoromethyl)pyridin-3-yl)methyl)pyrido[2,3-d]pyrimidin-4-amine] | 1 to 10
CC(C)Nc1nc(NCc2ccc(C(F)(F)F)cc2)c2ccccc2n1 [Example 111, N^2-isopropyl-N^4-(4-(trifluoromethyl)benzyl)quinazoline-2,4-diamine] | 1000 to 100000
O=C(Nc1ccc(F)cc1)Nc1nc(NCc2cccnc2C(F)(F)F)c2cccnc2n1 [Example 204, 1-(4-fluorophenyl)-3-(4-(((2-(trifluoromethyl)pyridin-3-yl)methyl)amino)pyrido[2,3-d]pyrimidin-2-yl)urea] | 10 to 100
CC1COCCN1c1nc(NCc2cccnc2C(F)(F)F)c2cccnc2n1 (stereo not shown) [Example 193, 2-(3-methylmorpholino)-N-((2-(trifluoromethyl)pyridin-3-yl)methyl)pyrido[2,3-d]pyrimidin-4-amine] | 1 to 10
FC(F)(F)c1ccccc1CNc1nc(NCCN2CCOCC2)nc2ccsc12 [Example 90, N^2-(2-morpholinoethyl)-N^4-(2-(trifluoromethyl)benzyl)thieno[3,2-d]pyrimidine-2,4-diamine] | 1000 to 100000
CC(C)(C)Nc1ncnc2ccsc12 [Example 78] | 1000 to 100000
CC(C)Nc1nc(NCc2ccc(C#N)cc2)c2ccccc2n1 [Example 120, N^4-(4-cyanobenzyl)-N^2-isopropylquinazoline-2,4-diamine] | 100 to 1000
CC1CN(c2nc(NCc3ccccc3C(F)(F)F)c3cccnc3n2)CCO1 (stereo not shown) [Example 248, 2-(2-methylmorpholino)-N-(2-(trifluoromethyl)benzyl)pyrido[2,3-d]pyrimidin-4-amine] | 0.01 to 1
C[C@H]1OCCN(c2nc(NCc3cccnc3C(F)(F)F)c3cccnc3n2)[C@H]1C [Example 287, 2-((2R,3S)-2,3-dimethylmorpholino)-N-((2-(trifluoromethyl)pyridin-3-yl)methyl)pyrido[2,3-d]pyrimidin-4-amine] | 0.01 to 1
CC(Nc1ncnc2cc(C3CC3)sc12)c1ccccc1C(F)(F)F (stereo not shown) [Example 99, 6-cyclopropyl-N-(1-(2-(trifluoromethyl)phenyl)ethyl)thieno[3,2-d]pyrimidin-4-amine] | 1000 to 100000
CN(C)CCNc1nc(NCc2ccccc2C(F)(F)F)c2sccc2n1 [Example 89, N^2-(2-(dimethylamino)ethyl)-N^4-(2-(trifluoromethyl)benzyl)thieno[3,2-d]pyrimidine-2,4-diamine] | 1000 to 100000
CC1CCN(c2nc(NCc3cccnc3C(F)(F)F)c3cccnc3n2)CC1 [Example 312, 2-(4-methylpiperidin-1-yl)-N-((2-(trifluoromethyl)pyridin-3-yl)methyl)pyrido[2,3-d]pyrimidin-4-amine] | 0.01 to 1
CC(C)Nc1nc(NCc2ccc(Cl)cc2)c2ccccc2n1 [Example 136, N^4-(4-chlorobenzyl)-N^2-isopropylquinazoline-2,4-diamine] | 1000 to 100000
FC(F)(F)c1ncccc1CNc1nc(N2CCCCC23CC3)nc2ncccc12 [Example 296, 2-(4-azaspiro[2.5]octan-4-yl)-N-((2-(trifluoromethyl)pyridin-3-yl)methyl)pyrido[2,3-d]pyrimidin-4-amine] | < 0.01
CC(C)Nc1nc(NCc2ccc(C(F)(F)F)nc2)c2ncccc2n1 [Example 125, N^2-isopropyl-N^4-((6-(trifluoromethyl)pyridin-3-yl)methyl)pyrido[3,2-d]pyrimidine-2,4-diamine] | 1000 to 100000
CC(C)Nc1nc(NCc2ccccc2C(F)(F)F)c2ccccc2n1 [Example 58, N^2-isopropyl-N^4-(2-(trifluoromethyl)benzyl)quinazoline-2,4-diamine] | 100 to 1000
FC(F)(F)c1ncccc1CNc1nc(N2CCC(C(F)(F)F)CC2)nc2ncccc12 [Example 235, 2-(4-(trifluoromethyl)piperidin-1-yl)-N-((2-(trifluoromethyl)pyridin-3-yl)methyl)pyrido[2,3-d]pyrimidin-4-amine] | 0.01 to 1
NC(=O)c1nc(NCc2ccccc2C(F)(F)F)c2sccc2n1 [Example 155, 4-((2-(trifluoromethyl)benzyl)amino)thieno[3,2-d]pyrimidine-2-carboxamide] | 1000 to 100000
FC1(F)CC2(CCN(c3nc(NCc4cccnc4C(F)(F)F)c4cccnc4n3)CC2)C1 [Example 252, 2-(2,2-difluoro-7-azaspiro[3.5]nonan-7-yl)-N-((2-(trifluoromethyl)pyridin-3-yl)methyl)pyrido[2,3-d]pyrimidin-4-amine] | 0.01 to 1
FC(F)(F)c1ccccc1CNc1nc(CN2CC(C(F)(F)F)C2)nc2ncccc12 [Example 226] | 100 to 1000
CC(C)(C)Nc1nc(NCc2ccccc2C(F)(F)F)c2sccc2n1 [Example 41, N^2-(tert-butyl)-N^4-(2-(trifluoromethyl)benzyl)thieno[3,2-d]pyrimidine-2,4-diamine] | 10 to 100
FC(F)OC1CCCN(c2nc(NCc3cccnc3C(F)(F)F)c3cccnc3n2)C1 (stereo not shown) [Example 292, 2-(3-(difluoromethoxy)piperidin-1-yl)-N-((2-(trifluoromethyl)pyridin-3-yl)methyl)pyrido[2,3-d]pyrimidin-4-amine] | < 0.01

SMILES | EC50 [nM]
FC(F)O[C@H]1CCN(c2nc(NCc3cccnc3C(F)(F)F)c3cccnc3n2)C1 [Example 281, (S)-2-(3-(difluoromethoxy)pyrrolidin-1-yl)-N-((2-(trifluoromethyl)pyridin-3-yl)methyl)pyrido[2,3-d]pyrimidin-4-amine] | 0.01 to 1
Fc1ccccc1CNc1nc(Cl)nc2ccsc12 [Example 10] | 1000 to 100000
FC(F)(F)c1ccccc1C1CCCN1c1ncnc2ccsc12 (stereo not shown) [Example 79] | 100 to 1000
CS(=O)(=O)c1ccccc1CNc1nc(Cl)nc2ccccc12 [Example 113] | 1000 to 100000
O=C(Nc1cccc(F)c1)Nc1nc(NCc2cccnc2C(F)(F)F)c2cccnc2n1 [Example 205, 1-(3-fluorophenyl)-3-(4-(((2-(trifluoromethyl)pyridin-3-yl)methyl)amino)pyrido[2,3-d]pyrimidin-2-yl)urea] | 10 to 100
CC(C)Nc1nc(NCc2ccccc2Cl)c2ccccc2n1 [Example 137, N^4-(2-chlorobenzyl)-N^2-isopropylquinazoline-2,4-diamine] | 1000 to 100000
FC(F)(F)c1cccnc1CNc1ncnc2ccsc12 [Example 61, N-((3-(trifluoromethyl)pyridin-2-yl)methyl)thieno[3,2-d]pyrimidin-4-amine] | 1000 to 100000
FC1CCN(c2nc(NCc3cccnc3C(F)(F)F)c3cccnc3n2)CC1 [Example 195, 2-(4-fluoropiperidin-1-yl)-N-((2-(trifluoromethyl)pyridin-3-yl)methyl)pyrido[2,3-d]pyrimidin-4-amine] | 1 to 10
CC(C)N(C)c1nc(NCc2cccnc2C(F)(F)F)c2cccnc2n1 [Example 162, N^2-isopropyl-N^2-methyl-N^4-((2-(trifluoromethyl)pyridin-3-yl)methyl)pyrido[2,3-d]pyrimidine-2,4-diamine] | 0.01 to 1
COc1ccc(CNc2nc(NC(C)C)nc3ccccc23)cc1OC [Example 140, N^4-(3,4-dimethoxybenzyl)-N^2-isopropylquinazoline-2,4-diamine] | 100 to 1000
Cc1nc(N(C)C(C)c2ccccc2C(F)(F)F)c2sc(C(C)(C)O)cc2n1 (stereo not shown) [Example 70, 2-(2-methyl-4-(methyl(1-(2-(trifluoromethyl)phenyl)ethyl)amino)thieno[3,2-d]pyrimidin-6-yl)propan-2-ol] | 1000 to 100000
FC(F)(F)c1ncccc1CNc1nc(N2CCOCC2C2CC2)nc2ncccc12 (stereo not shown) [Example 253, 2-(3-cyclopropylmorpholino)-N-((2-(trifluoromethyl)pyridin-3-yl)methyl)pyrido[2,3-d]pyrimidin-4-amine] | 1 to 10
CC(C)Nc1nc(NCc2ccccc2S(C)(=O)=O)c2cccnc2n1 [Example 127, N^2-isopropyl-N^4-(2-(methylsulfonyl)benzyl)pyrido[2,3-d]pyrimidine-2,4-diamine] | 100 to 1000
FC1(F)CCN(c2nc(N3CCC3c3ccccc3C(F)(F)F)c3cccnc3n2)CC1 (stereo not shown) [Example 213, 2-(4,4-difluoropiperidin-1-yl)-4-(2-(2-(trifluoromethyl)phenyl)azetidin-1-yl)pyrido[2,3-d]pyrimidine] | 10 to 100
CC1(C#N)CCN(c2nc(NCc3ccccc3C(F)(F)F)c3cccnc3n2)CC1 [Example 261, (2-(trifluoromethyl)pyridin-3-yl)metha 4-methyl-1-(4-((2-(trifluoromethyl)benzyl)amino)pyrido[2,3-d]pyrimidin-2-yl)piperidine-4-carbonitrile] | < 0.01
FC(F)C1CN(c2nc(NCc3cccnc3C(F)(F)F)c3cccnc3n2)CCO1 (stereo not shown) [Example 282, 2-(2-(difluoromethyl)morpholino)-N-((2-(trifluoromethyl)pyridin-3-yl)methyl)pyrido[2,3-d]pyrimidin-4-amine] | 0.01 to 1
CC(C)Nc1nc(NC(C)c2ccccc2C(F)(F)F)c2sccc2n1 (stereo not shown) [Example 53, N^2-isopropyl-N^4-(1-(2-(trifluoromethyl)phenyl)ethyl)thieno[3,2-d]pyrimidine-2,4-diamine] | 1 to 10
CC(C)Nc1nc(NCc2cccnc2C(F)(F)F)c2ncccc2n1 [Example 152, N^2-isopropyl-N^4-((2-(trifluoromethyl)pyridin-3-yl)methyl)pyrido[3,2-d]pyrimidine-2,4-diamine] | 100 to 1000
COc1nc(N(C)C(C)c2ccccc2C(F)(F)F)c2sccc2n1 (stereo not shown) [Example 68, 2-methoxy-N-methyl-N-(1-(2-(trifluoromethyl)phenyl)ethyl)thieno[3,2-d]pyrimidin-4-amine] | 10 to 100
COc1ccc(CNc2nc(NC(C)C)nc3ccsc23)cc1OC [Example 133, N^4-(3,4-dimethoxybenzyl)-N^2-isopropylthieno[3,2-d]pyrimidine-2,4-diamine] | 1000 to 100000
CC(Nc1ncnc2ccsc12)c1ccccc1Cl (stereo not shown) [Example 38, N-(1-(2-chlorophenyl)ethyl)thieno[3,2-d]pyrimidin-4-amine] | 1000 to 100000

Reference: US11518760B2 (Liverpool School of Tropical Medicine, priority 2017, dated 2022)
